Where two headings read alike, the source gives them in different places.
What was measured:
PARylation = PARylation inhibition in Lovo cells (H2O2 stimulated, anti-PAR antibody); type: cell-based; details: Homo sapiens, 25 mM H2O2
Procedure: Experimental Example 4: Anti-Proliferation Experiment on PARylation
Experimental materials: test compounds; F12K medium; Lovo cells; Anti-Poly (ADP-ribose) mouse monoclonal antibody; FITC-labeled goat anti-mouse IgG; hydrogen peroxide; DAPI; PBS; methanol; acetone; Tween-20; skimmed milk powder; Envision multi-marker analyzer.
Day one: Lovo cells were plated on a plate at 60,000 cells/well, and then incubated overnight at 37° C./5% CO2.
Day two: reagents were prepared: • 1. Washing solution: Tween-20 was added to 1-fold PBS, and the final concentration of Tween-20 was 0.05%. • 2. Blocking solution: skimmed milk powder was added to the washing solution, and the final concentration of skimmed milk powder was 5%. • 3. Cell stationary solution: methanol and acetone were mixed in a ratio of 7:3.
Preparation of test compounds: compound intermediate plate 1: compounds were diluted to final concentrations of 10 μM to 0.13 nM with DMSO and PBS, and the concentration of DMSO was 1%. Compound intermediate plate 2: compounds were diluted to final concentrations of 10 μM to 0.13 nM with DMSO and PBS containing 50 mM hydrogen peroxide, and the concentration of DMSO was 1%.
1. Cell supernatant was removed, and compound was transferred from the compound intermediate plate 1 to the cell plate at 40 μL per well, and the mixture was incubated at 37° C. for 30 min.
Compound wells: compound, DMSO 1%;
Negative and positive controls: 1% DMSO added;
Blank controls: cell-free wells, PBS added.
2. After the incubation was completed, compound was transferred from the compound intermediate plate 2 to the cell plate at 40 μL per well, and the final concentration of H2O2 was 25 mM.
Compound wells: compound+25 mM H2O2
Positive and negative controls: 1% DMSO+25 mM H2O2
Blank controls: cell-free wells, PBS added
4. After the incubation was completed, the cell plate was washed once with PBS pre-cooled on ice and added with 100 μL of pre-cooled cell stationary solution per well. After the cell plate was left to stand at −20° C. for 10 min, the cell stationary solution was shaken off. 5. After being air-dried, the cell plate was washed with PBS at 200 μL per well, and then the PBS was discarded. 6. The cell plate was added with blocking solution at 100 μL per well and incubated at 25° C. for 30 min, after which the blocking solution was shaken off. 7. Anti-PAR antibody which was diluted in blocking solution at a ratio of 1:50, was added to the cell plate at 25 μL per well, and then the mixture was incubated at 25° C. for 60 min.
Negative control wells: blocking solution added at 25 μL/well
Blank control wells: blocking solution added at 25 μL/well
8. […] After removal of the liquid, corresponding fluorescence values were read on Envision: FITC: 480 nm and 530 nm; DAPI: 360 nm and 460 nm. […]

[1] = Metabolic stability in liver microsomes, human; type: in vitro ADME; details: Human liver microsomes 0.5 mg/mL, 1 μM compound, NADPH, 37° C.
Procedure: Experimental Example 7. Metabolic Stability in Liver Microsomes
Experimental objective: to test the metabolic stability of test compounds in liver microsomes of three species.
Experimental method: 1 μM test compound and a microsome (0.5 mg/mL) were incubated at 37° C. in the presence of an NADPH regeneration system; positive controls were testosterone (3A4 substrate), propylamine propiophenone (2D6 substrate) and diclofenac (2C9 substrate), and also at 37° C., a positive control was incubated with a microsome (0.5 mg/mL) in the presence of an NADPH regenerating system; the reaction was stopped by direct mixing of the sample with cold acetonitrile containing an internal standard at various time points (0, 5, 10, 20, 30 and 60 min); the compound and microsome were incubated for 60 min in the absence of an NADPH regenerating system; one parallel (n=1) was set at each time point; the samples were analyzed by LC/MS/MS; the concentration of the compound was characterized by the ratio of the analyte peak area to the internal standard peak area.

[2] = Single-dose pharmacokinetic study in mice; type: in vivo; details: male C57BL/6 mice; for Maximum concentration / bioavailability / clearance / half-life / Vd: IV: 1 mg/kg PO: 5 mg/kg; for bioavailability / clearance / half-life / Vd / AUC(0-t): mouse, plasma; for Vd: read-out: Apparent volume of distribution
From the text: Experimental Example 8: Single-Dose Pharmacokinetic Study in Mice
Experimental objective: to evaluate the pharmacokinetic behavior by using male C57BL/6 mice as test animals and determining the drug concentrations of the compounds in the plasma, liver and cerebrospinal fluid after single-dose administration.
Experimental method: healthy adult male C57BL/6 mice were selected for intragastric administration. A candidate compound was mixed with an appropriate amount of 10% DMSO/90% (20% hydroxypropyl-β-cyclodextrin), vortexed and sonicated to prepare a 0.5 mg/mL clear solution for later use. After the mice were administered intravenously at 1 mg/kg and orally at 5 mg/kg, whole blood was collected at certain time points, and plasma was separated, and liver and cerebrospinal fluid were collected. After pretreatment of the samples, the drug concentration was measured by LC-MS/MS, and pharmacokinetic parameters were calculated using Phoenix WinNonlin software.

[3] = intravenous 1 mg/kg, read-out: AUC0-last (intravenous injection)
[4] = oral 5 mg/kg, read-out: AUC0-last (oral)

Row | Compound | IC50 (PARylation) [nM] | Residual content after 60 min of incubation [1] [%] | Maximum concentration [2] [nM] | bioavailability [2] [%] | clearance [2] [mL/min/kg] | half-life [2] [h] | Vd [2] [L/kg] | AUC(0-t) [2, 3] [µM·h] | AUC(0-t) [2, 4] [µM·h]
1 | O=C1NOCc2c(-c3ccc(C4CCCN4)cc3)[nH]c3cc(F)cc1c23 (single isomer, unassigned) [Example 24_A] | 23 | 60.4 | 433 | 21.2 | 34.9 | 2.03 | 4.21 | 1.3 | 1.38
2 | CC1(c2ccc(-c3[nH]c4cc(F)cc5c4c3CONC5=O)cc2F)CCCN1 (single isomer, unassigned) [Example 26_A] | 25 | 29.6 | 285 | 37.9 | 60.7 | 2.15 | 8.22 | 0.679 | 1.29
3 | CC1(c2ccc(-c3[nH]c4cccc5c4c3CONC5=O)cc2)CCCN1 (stereo not drawn) [Example 6_A] | 19 | 53.7 |  |  |  |  |  |  | 
4 | O=C1NOCc2c(-c3ccc(C4CCCN4)c(F)c3)[nH]c3cccc1c23 (stereo not drawn) [Example 11_A] | 27 | 73.8 |  |  |  |  |  |  | 
5 | CC1(c2ccc(-c3[nH]c4cc(F)cc5c4c3CONC5=O)cc2)CCCN1 (stereo not drawn) [Example 25_A] |  | 35.9 | 240 | 24.8 | 41 | 3.02 | 9.44 | 0.958 | 1.19

Reference: patent US20220144850A1, “INDOLO HEPTAMYL OXIME ANALOGUE AS PARP INHIBITOR” (Chia Tai Tianqing Pharmaceutical Group Co., Ltd., priority 2019, published 2022)
